Laboratory results from patent US20210255193A1, “LYSINE REACTIVE PROBES AND USES THEREOF” (The Scripps Research Institute, priority 2017, published 2021).

What was measured:
Experiment in all cases: competitive isoTOP-ABPP
Format in all cases: binding
[1] = target: T1, MAP1LC3B Microtubule-associated proteins 1A/1B light chain (Homo sapiens, UniProt Q9GZQ8); set-up: key to isoTOP-ABPP reactivity ratio at lysine Q9GZQ8_K51: R = MS1 peak area ratio, DMSO (heavy) / compound-treated (light); settings: 50 uM, in vitro; for isoTOP-ABPP ratio (R) at liganded lysine Q9GZQ8_K51: sol, 231
T1 construct: isoTOP-ABPP experiments performed in cell lysates (in vitro); endogenous in cells; host or cells: soluble proteome of human cancer cell lines (MDA-MB-231; Ramos and Jurkat also prepared)
Procedure: (§1) In vitro covalent fragment treatment for isoTOP-ABPP. All compounds were made up as solutions in DMSO (100×) and were used at a final concentration of 50 μM for activated esters and 100 μM for guanidinylating agents. For each profiling sample, 0.5 ml of lysate was treated with 5 μl of the 100× compound stock solution or 5 μl of DMSO. Samples were treated with activated esters for
(§2) STP-alkyne labeling and click chemistry. For concentration-dependent reactivity measurements by isoTOP-ABPP, 0.5 ml proteome aliquots were treated at ambient temperature with 1 mM STP-alkyne 1 (5 μl of 100 mM stock in DMSO) and 0.1 mM STP alkyne 1 (5 μl of 10 mM stock in DMSO), respectively. For competitive isoTOP-ABPP, after in vitro fragment treatment (detailed above), the samples were labeled for 1 h at ambient temperature with 0.1 mM STP-alkyne 1 (5 μl of 10 mM stock in DMSO). Samples were conjugated by copper-mediated azide-alkyne cycloaddition (CuAAC) to either the light (1 mM STP-alkyne or fragment treated) or heavy (0.1 mM STP-alkyne or DMSO treated) TEV tags (10 μl of 5 mM stocks in DMSO, final concentration=100 μM) using tris(2-carboxyethyl)phosphine hydrochloride
(§3) R value calculation and processing. The ratios of light and heavy MS1 peaks for each unique peptide were quantified with a CIMAGE software using default parameters (3 MS1 acquisitions per peak and signal to noise threshold set to 2.5). For reactivity measurements by isoTOP-ABPP, the R value was calculated from the ratio of MS1 peak areas, comparing the 1 mM STP alkyne sample (light TEV tag) with the 0.1 mM STP alkyne sample (heavy TEV tag). For competitive isoTOP-ABPP, the R value was calculated from the ratio of MS1 peak areas, comparing the DMSO treated sample (heavy TEV tag) with the compound treated sample (light TEV tag). […] Ratios for unique peptide entries are calculated for each experiment; overlapping peptides with the same modified lysine (for example, different charge states, MudPIT chromatographic steps or tryptic termini) are grouped together and the median ratio is reported as the final ratio (R). The peptide ratios reported by CIMAGE were further filtered to ensure the removal or correction of low-quality ratios in each individual data set. The quality filters applied were the following: removal of half tryptic peptides; for ratios with high standard deviations from the median (90% of the median or above) the lowest ratio was taken instead of the median; removal of peptides with R=20 and only a single MS2 event triggered during the elution of the parent ion; manual annotation of all the peptides with ratios of 20, removing any peptides with low quality elution profiles that remained after the previous curation steps (only done for competitive isoTOP-ABPP).
(§4) Cross-data processing for fragment screening. For compound treated samples, biological replicates of the same condition were averaged, if the standard deviation was below 60% of the mean; otherwise, for lysines with at least one R value <4 for a particular compound, the lowest value of the ratio set was taken. For lysines, where all R values for a particular compound were ≥4, the average was reported. For peptides containing several possible modified lysines, the lysine with the highest number of quantification events was used for analysis and the remaining, redundant peptides were reported as alternative modification sites. Peptides included in the aggregate dataset (those used for further bioinformatics and statistical analyses) were required to have been quantified in 2 experiments for competitive isoTOP-ABPP. Lysines were categorized as liganded, if they had at least one ratio R≥4 (hit fragments). For liganded lysines with R=20 for all liganding events, lysines were required to have been quantified with R=20 in two separate experiments and were further required to have been quantified with R<20 in one additional experiment.

[2] = target: T2, ABHD10 Abhydrolase domain-containing protein 10, mitochondrial (Homo sapiens, UniProt Q9NUJ1); set-up: key to isoTOP-ABPP reactivity ratio at lysine Q9NUJ1_K185: R = MS1 peak area ratio, DMSO (heavy) / compound-treated (light); capped at 20; settings: 50 uM, in vitro; for isoTOP-ABPP reactivity ratio at lysine Q9NUJ1_K185 / R value (DMSO/fragment) for probe 1 labeling: 231 sol; for isoTOP-ABPP ratio (R) at liganded lysine Q9NUJ1_K185: sol, 231; for R value (DMSO/fragment) for probe 1 labeling: Q9NUJ1_K185
T2 construct: endogenous in cells; host or cells: MDA-MB-231 lysate
T2 sequence (Q9NUJ1 53-306): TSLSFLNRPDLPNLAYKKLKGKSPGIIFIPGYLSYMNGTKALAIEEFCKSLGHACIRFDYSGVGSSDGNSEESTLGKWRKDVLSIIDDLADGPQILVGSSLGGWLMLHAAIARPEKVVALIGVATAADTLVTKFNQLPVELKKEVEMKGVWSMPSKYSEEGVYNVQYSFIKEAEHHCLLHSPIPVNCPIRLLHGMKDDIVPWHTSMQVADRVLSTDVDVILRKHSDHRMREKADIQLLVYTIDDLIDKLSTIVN
Procedure: as §1, §2, §3, §4

OLA1 Obg-like ATPase 1 = target: T3, OLA1 Obg-like ATPase 1 (Homo sapiens, UniProt Q9NTK5); settings: 50 uM, in vitro; for isoTOP-ABPP reactivity ratio at lysine Q9NTK5_K248 / R value (DMSO/fragment) for probe 1 labeling: 231 sol; for isoTOP-ABPP ratio (R) at liganded lysine Q9NTK5_K248: sol, 231; for R value (DMSO/fragment) for probe 1 labeling: Q9NTK5_K248
T3 construct: endogenous in cells; host or cells: MDA-MB-231 (soluble fraction of lysate)
Procedure: as §1, §2, §3, §4

[3] = target: T4, FECH Ferrochelatase, mitochondrial (Homo sapiens, UniProt P22830); settings: 50 uM, in vitro
T4 construct: isoTOP-ABPP experiments performed in cell lysates (in vitro); endogenous in cells; host or cells: soluble proteome of human cancer cell lines (MDA-MB-231; Ramos and Jurkat also prepared)
T4 sequence (P22830 55-423): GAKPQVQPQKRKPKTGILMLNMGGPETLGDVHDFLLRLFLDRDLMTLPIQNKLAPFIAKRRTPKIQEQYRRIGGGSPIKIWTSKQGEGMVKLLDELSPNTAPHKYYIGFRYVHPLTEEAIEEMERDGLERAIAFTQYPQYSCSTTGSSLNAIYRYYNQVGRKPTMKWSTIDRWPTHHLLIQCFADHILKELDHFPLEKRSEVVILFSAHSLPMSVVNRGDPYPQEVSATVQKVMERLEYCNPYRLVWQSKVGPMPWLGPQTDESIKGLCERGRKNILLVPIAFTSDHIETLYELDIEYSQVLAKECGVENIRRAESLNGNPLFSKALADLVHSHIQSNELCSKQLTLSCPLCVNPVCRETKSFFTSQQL
Procedure: as §1, §2, §3, §4

O=C(Oc1ccc([N+](=O)[O-])cc1[N+](=O)[O-])C(c1ccccc1)c1ccccc1 [fragment 30, 2,4-Dinitrophenyl 2,2-diphenylacetate]
isoTOP-ABPP reactivity ratio at lysine Q9GZQ8_K51 ([1]; 231 sol): 1.2
isoTOP-ABPP reactivity ratio at lysine Q9NUJ1_K185 [2]: 2.4
isoTOP-ABPP reactivity ratio at lysine Q9NTK5_K248 (OLA1 Obg-like ATPase 1): 1.0

CC(=O)Oc1ccc([N+](=O)[O-])cc1[N+](=O)[O-] [fragment 43, 2,4-Dinitrophenyl acetate]
isoTOP-ABPP ratio (R) at liganded lysine Q9NUJ1_K185 [2]: 1.3
isoTOP-ABPP ratio (R) at liganded lysine Q9NTK5_K248 (OLA1 Obg-like ATPase 1): 1.0
isoTOP-ABPP ratio (R) at liganded lysine P22830_K304 ([3]; sol, 231): 1.3

O=C(Oc1ccc([N+](=O)[O-])cc1[N+](=O)[O-])c1ccc(-c2ccccc2)cc1 [fragment 37, 2,4-Dinitrophenyl [1,1′-biphenyl]-4-carboxylate]
isoTOP-ABPP ratio (R) at liganded lysine Q9GZQ8_K51 [1]: 0.9
isoTOP-ABPP ratio (R) at liganded lysine Q9NUJ1_K185 [2]: 1.2
isoTOP-ABPP ratio (R) at liganded lysine Q9NTK5_K248 (OLA1 Obg-like ATPase 1): 0.9

O=C(Oc1ccc([N+](=O)[O-])cc1[N+](=O)[O-])c1ccc2ccccc2n1 [fragment 35, 2,4-Dinitrophenyl quinoline-2-carboxylate]
isoTOP-ABPP ratio (R) at liganded lysine Q9GZQ8_K51 [1]: 1.0
isoTOP-ABPP ratio (R) at liganded lysine Q9NUJ1_K185 [2]: 1.3
isoTOP-ABPP ratio (R) at liganded lysine Q9NTK5_K248 (OLA1 Obg-like ATPase 1): 1.0

O=C(Oc1c(F)c(F)c(F)c(F)c1F)c1cc(C(F)(F)F)cc(C(F)(F)F)c1 [fragment 21, Pentafluorophenyl 3,5-bis(trifluoromethyl)benzoate]
R value (DMSO/fragment) for probe 1 labeling [2]: 4.7
R value (DMSO/fragment) for probe 1 labeling (OLA1 Obg-like ATPase 1): 1.0
R value (DMSO/fragment) for probe 1 labeling ([3]; P22830_K304, 231 sol): 1.0

CC(C)(C)OC(=O)NCCCC(=O)Oc1ccc([N+](=O)[O-])cc1[N+](=O)[O-] [fragment 41, 2,4-Dinitrophenyl 4-((tert-butoxycarbonyl)amino)butanoate]
isoTOP-ABPP ratio (R) at liganded lysine Q9GZQ8_K51 [1]: 0.9
isoTOP-ABPP ratio (R) at liganded lysine Q9NUJ1_K185 [2]: 3.3
isoTOP-ABPP ratio (R) at liganded lysine Q9NTK5_K248 (OLA1 Obg-like ATPase 1): 1.0

O=C(Oc1c(F)c(F)c(F)c(F)c1F)C1CCN(C(=O)OCc2ccccc2)CC1 [fragment 24, 1-Benzyl 4-(pentafluorophenyl) piperidine-1,4-dicarboxylate]
isoTOP-ABPP reactivity ratio at lysine Q9GZQ8_K51 ([1]; 231 sol): 1.1
isoTOP-ABPP reactivity ratio at lysine Q9NTK5_K248 (OLA1 Obg-like ATPase 1): 1.1
isoTOP-ABPP reactivity ratio at lysine P22830_K304 ([3]; 231 sol): 1.5

Cn1cc(CC(=O)Oc2ccc([N+](=O)[O-])cc2[N+](=O)[O-])c2ccccc21 [fragment 32, 2,4-Dinitrophenyl 2-(1-methyl-1H-indol-3-yl)acetate]
isoTOP-ABPP reactivity ratio at lysine Q9GZQ8_K51 ([1]; 231 sol): 0.9
isoTOP-ABPP reactivity ratio at lysine Q9NUJ1_K185 [2]: 1.4
isoTOP-ABPP reactivity ratio at lysine Q9NTK5_K248 (OLA1 Obg-like ATPase 1): 1.0

COc1cc(CCC(=O)Oc2c(F)c(F)c(F)c(F)c2F)cc(OC)c1OC [fragment 23, Pentafluorophenyl 3-(3,4,5-trimethoxyphenyl)propanoate]
R value (DMSO/fragment) for probe 1 labeling ([1]; Q9GZQ8_K51, 231 sol): 0.7
R value (DMSO/fragment) for probe 1 labeling [2]: 2.0
R value (DMSO/fragment) for probe 1 labeling (OLA1 Obg-like ATPase 1): 1.0
